Measurements from US20060167057A1, “Compounds for the treatment of CNS and amyloid associated diseases” (priority 2004, published 2006).

Molecular target: T1, L1 transport system (large neutral amino acid carrier, L1-system carrier) (Rattus norvegicus, UniProt Q63016)
T1 construct: functionality of their endogenous transporters such as the L1-system carrier; endogenous in cells; host or cells: rat primary cerebrovascular (brain microcapillary) endothelial cells, RBEC
Experiment: Competitive binding assay to the brain L1 transport system (L-[U-14C]phenylalanine on rat primary cerebrovascular endothelial cells)
Conditions: for Status of Binding: compounds of Example 4, 10^−6, 10^−5 and 10^−4, Δ versus phenylalanine
Experimental: Compound samples in PBS (without Ca^+2, Mg^+2)-glucose 30 mM-HEPES 10 mM—DMSO 1% as prepared in Example 1 were thawed and left for at least 30 minutes at 20-23° C. before preparation of the following sub-dilutions for the competitive binding assay: • 200 μL of the stock solution were added to 800 μL PBS (without Ca^+2, Mg^+2)-Glucose-HEPES-1% DMSO (PBSD-1) [diluted 1:5 for a final 1:5 dilution] • 100 μL (1/5 dilution above) were added to 900 μL PBSD-1 [diluted 1:10 for a final 1:50 dilution] • 100 μL (1/50 dilution above) were added to 900 μL PBSD-1 [diluted 1:10 for a final 1:500 dilution]
These sub-dilutions were used immediately or stored overnight at 4° C. before the competitive binding assay. A volume of 45 μL of each of the compound dilutions (1:5, 1:50, 1:500) in PBSD-1 was added to the appropriate wells in the dilution plate.
Brains from sixty 24-day-old rats were dissected individually on a sterile lint moistened with ice cold Hanks' balanced salt solution (Gibco BRL, Grand Island, N.Y.) containing 10 mM HEPES (medium 1) supplemented with 0.1% BSA. Cerebellum, striatum, optic nerves, and brain stem (white matter) were removed. After a mid-sagittal section of the brain, the meninges and leptomeningeal debris were removed by rolling a sterile dry cotton swab on the cortices. (Ichikawa N, Naora K, Hirano H, Hashimoto M, Masumura S, and Iwamoto K (1996). Isolation and primary culture of rat cerebral microvascular endothelial cells for studying drug transport in vitro. J Pharmacol Toxicol Meth 36: 45-52.). Clean cortices were minced in pieces of ≈2 mm^3 in 15 mL of ice-cold medium 1-0.1% BSA. The preparation was divided into 4 sterile pre-weighed tubes and centrifuged at 330× g at 20-25° C. for 5 min. Tubes were weighed and pre-warmed (37° C.) and medium 1 with 0.5% BSA containing 0.3% collagenase and 10 μg/mL DNAse 1 (Roche, Laval, Quebec, Canada) were added to each tube (1 mL/g of tissue).
The brain-collagenase mixture was vigorously agitated in a water bath at 37° C. for 90 min. Fifteen min before the end of the digestion, the tissue was homogenized using a 10-mL pipette until a creamy mixture was obtained (≈20 aspirations). Cells were washed by adding medium 1 with 0.1% BSA to the homogenate (26 mL/tube) and centrifuged at 100× g at 20-25° C. for 7 min. This washing step was repeated 3 more times, once for 5 min and twice for 3 min. Each pellet was re-suspended in 25 mL of a 15% dextran solution prepared in medium 1 with 0.1% BSA and centrifuged at 3200× g at 4° C. for 25 min to isolate vessels from neural tissue and dextran layers. Vascular pellets were re-suspended in 5 mL Ca^++—Mg^++-free-medium 1 with 0.1% BSA (medium 2) at 20-25° C. and transferred in a 50-mL tube. Remaining vessels were collected by rinsing the tubes and pooling the rinsing suspension. (Rupnick M A, Carey A, and Williams S K (1988). Phenotypic diversity in cultured cerebral microvascular endothelial cells in vitro. Cell Develop Biol 24: 435-444.)
The vascular preparation was filtered and rinsed (20 mL of medium 2) through a sterile 355-μm mesh. The 355-μm filtrate was sequentially filtered twice (20 mL of medium 2) through sterile 112-μm meshes and rinsed (Stanimirovic D B, Wong J, Ball R, and Durkin J P (1995). Free radical-induced endothelial membrane dysfunction at the site of the blood-brain barrier: relationship between lipid peroxidation, Na,K-ATPase activity, and ^51Cr release. Neurochem Res 20:1417-1427.) and the latter filtrate was filtered and rinsed through a sterile 20-μm mesh. A final step of filtration and rinse was repeated through a double layer of 20-μm meshes. All 20-μm meshes, which retained the microcapillaries, were then transferred into a 50-mL tube containing 20 mL of a 0.1% collagenase/dispase (Roche) solution in medium 2 supplemented with 10 μg/mL DNAse 1 and 0.147 μg/mL tosyl-lysine-chloromethyl-ketone (Sigma Chemical Co., Oakville, Ontario, Canada) (medium 3).

T1 sequence (Q63016 whole entry): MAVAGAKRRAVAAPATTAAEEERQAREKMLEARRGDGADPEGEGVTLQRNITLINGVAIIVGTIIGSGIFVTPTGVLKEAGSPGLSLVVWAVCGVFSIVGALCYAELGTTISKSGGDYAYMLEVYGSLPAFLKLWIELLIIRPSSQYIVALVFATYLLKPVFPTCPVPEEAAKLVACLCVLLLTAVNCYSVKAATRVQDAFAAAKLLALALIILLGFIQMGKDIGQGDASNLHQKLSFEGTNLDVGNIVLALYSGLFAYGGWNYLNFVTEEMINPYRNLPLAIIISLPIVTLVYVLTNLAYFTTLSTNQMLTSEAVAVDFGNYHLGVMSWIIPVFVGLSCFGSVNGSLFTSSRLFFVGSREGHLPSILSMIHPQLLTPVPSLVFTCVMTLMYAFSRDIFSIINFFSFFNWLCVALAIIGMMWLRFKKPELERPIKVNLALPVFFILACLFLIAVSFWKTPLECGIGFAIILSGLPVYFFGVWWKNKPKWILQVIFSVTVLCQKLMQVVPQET
T1 sequence (Q794F9 whole entry partner): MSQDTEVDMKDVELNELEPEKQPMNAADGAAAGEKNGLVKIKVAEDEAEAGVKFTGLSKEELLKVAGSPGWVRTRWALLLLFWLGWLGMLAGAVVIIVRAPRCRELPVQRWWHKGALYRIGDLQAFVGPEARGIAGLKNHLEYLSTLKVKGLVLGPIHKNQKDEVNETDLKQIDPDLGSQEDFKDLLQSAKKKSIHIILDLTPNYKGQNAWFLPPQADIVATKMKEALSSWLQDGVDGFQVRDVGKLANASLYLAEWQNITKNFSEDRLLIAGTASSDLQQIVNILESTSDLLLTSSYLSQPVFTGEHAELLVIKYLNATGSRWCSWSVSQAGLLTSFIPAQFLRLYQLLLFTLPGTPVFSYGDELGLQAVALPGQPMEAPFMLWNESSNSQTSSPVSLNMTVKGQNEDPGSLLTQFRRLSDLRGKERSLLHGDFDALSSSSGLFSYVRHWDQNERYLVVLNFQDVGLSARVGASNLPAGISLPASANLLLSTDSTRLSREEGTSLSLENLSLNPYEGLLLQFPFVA

Compound | Comparison with the Binding of Phenylalanine (10^−4 M) | Comparison with the Binding of Phenylalanine (10^−5 M) | Comparison with the Binding of Phenylalanine (10^−6 M) | Status of Binding
NC(Cc1cccc(CSc2nc(-c3ccccc3)c(-c3ccccc3)o2)n1)C(=O)O (centres unmarked) [Compound 119] | 2 (10 < X < 20 Rank 2) | 3 (X > 20 Rank 3) | 1 (0 < X < 10 Rank 1) | –
NC(=O)C(N)Cc1cccc(CSc2nc3ccccc3o2)n1 (centres unmarked) [Compound 31] | 0 (X < 0 Rank 0) | 0 (X < 0 Rank 0) | 2 (10 < X < 20 Rank 2) | –
Cc1nc(SCc2ccc(-c3ccc(CC(N)C(=O)O)cc3)cc2)sc1CC(=O)O (centres unmarked) [Compound 122] | 0 (X < 0 Rank 0) | 0 (X < 0 Rank 0) | 1 (0 < X < 10 Rank 1) | –
NC(Cc1cccc(CSc2nnc(-c3ccncc3)o2)c1)C(=O)O (centres unmarked) [Compound 10] | 0 (X < 0 Rank 0) | 1 (0 < X < 10 Rank 1) | 3 (X > 20 Rank 3) | –
NC(=O)C(N)Cc1cccc(CSc2cncc3c(C(F)(F)F)cccc23)n1 (centres unmarked) [Compound 25] | 0 (X < 0 Rank 0) | 1 (0 < X < 10 Rank 1) | 0 (X < 0 Rank 0) | –
NC(Cc1cccc(CSc2nc(-c3ccccc3)c(-c3ccccc3)o2)c1)C(=O)O (centres unmarked) [Compound 104] | 2 (10 < X < 20 Rank 2) | 3 (X > 20 Rank 3) | 3 (X > 20 Rank 3) | –
NC(Cc1cccc(-c2cccc(Sc3ccc4ccccc4n3)c2)c1)C(=O)O (centres unmarked) [Compound 144] | 0 (X < 0 Rank 0) | 0 (X < 0 Rank 0) | 1 (0 < X < 10 Rank 1) | –
NC(Cc1ccc(-c2ccc(CN3CCN(c4ncccn4)CC3)cc2)cc1)C(=O)O (centres unmarked) [Compound 99] | 0 (X < 0 Rank 0) | 0 (X < 0 Rank 0) | 1 (0 < X < 10 Rank 1) | –
N[C@@H](Cc1cccc(CSc2nnnn2-c2ccccc2)c1)C(=O)O [drawing 468] | – | – | – | 3 (3: Δ > 10%, significantly higher binding affinity than phenylalanine)
CCOC(=O)c1c[nH]c(SCc2ccc(-c3ccc(CC(N)C(=O)O)cc3)cc2)nc1=O (centres unmarked) [Compound 87] | 2 (10 < X < 20 Rank 2) | 3 (X > 20 Rank 3) | 3 (X > 20 Rank 3) | –
N[C@@H](Cc1ccccc1)C(=O)NC(Cc1cccc(CSc2cncc3c(C(F)(F)F)cccc23)n1)C(=O)O (some centres unmarked) [Compound 26] | 0 (X < 0 Rank 0) | 0 (X < 0 Rank 0) | 1 (0 < X < 10 Rank 1) | –
O=C(Nc1ccc(-c2ccccc2)cc1)NC(Cc1cccc(CSc2nnnn2-c2ccccc2)c1)C(=O)O (centres unmarked) [Compound 54] | 1 (0 < X < 10 Rank 1) | 3 (X > 20 Rank 3) | 2 (10 < X < 20 Rank 2) | –
CCOC(=O)c1cnc(SCc2cccc(CC(N)C(=O)O)n2)[nH]c1=O (centres unmarked) [Compound 146] | 2 (10 < X < 20 Rank 2) | 3 (X > 20 Rank 3) | 3 (X > 20 Rank 3) | –
N[C@@H](Cc1ccccc1)C(=O)NC(Cc1cccc(CSc2nnnn2-c2ccccc2)c1)C(=O)O (some centres unmarked) [Compound 53] | 0 (X < 0 Rank 0) | 2 (10 < X < 20 Rank 2) | 2 (10 < X < 20 Rank 2) | –
NC(Cc1cccc(CSc2ncc[nH]2)c1)C(=O)O (centres unmarked) [Compound 5] | 3 (X > 20 Rank 3) | 3 (X > 20 Rank 3) | 3 (X > 20 Rank 3) | –
NC(Cc1cccc(CSc2nnc(-c3ccccc3)o2)c1)C(=O)O (centres unmarked) [Compound 1] | 2 (10 < X < 20 Rank 2) | 3 (X > 20 Rank 3) | 2 (10 < X < 20 Rank 2) | –
NC(Cc1cccc(CSc2nnc[nH]2)n1)C(=O)O (centres unmarked) [Compound 35] | 0 (X < 0 Rank 0) | 0 (X < 0 Rank 0) | 3 (X > 20 Rank 3) | –
N[C@@H](Cc1cccc(CSc2nnc(-c3ccncc3)[nH]2)c1)C(=O)O [drawing 486] | – | – | – | 2 (2: 10% ≧ Δ ≧ −10% similar binding affinity to phenylalanine)
N[C@@H](Cc1cccc(CSc2nc3ccccc3[nH]2)c1)C(=O)O [drawing 469] | – | – | – | 1 (1: −10 > Δ > −50%, lower binding affinity than phenylalanine)
NC(Cc1cccc(-c2cccc(Sc3nc(-c4ccccc4)c(-c4ccccc4)[nH]3)c2)c1)C(=O)O (centres unmarked) [Compound 74] | 0 (X < 0 Rank 0) | 1 (0 < X < 10 Rank 1) | 1 (0 < X < 10 Rank 1) | –
CN(C)CCn1nnnc1SCc1cccc(CC(N)C(=O)O)n1 (centres unmarked) [Compound 88] | 1 (0 < X < 10 Rank 1) | 1 (0 < X < 10 Rank 1) | 1 (0 < X < 10 Rank 1) | –
N[C@@H](Cc1cccc(CS(=O)(=O)c2nc3ccccc3[nH]2)n1)C(=O)O [drawing 473] | – | – | – | 0 (0: Δ ≦ −50%, no binding or very low binding affinity)
N[C@@H](Cc1cccc(C[S+]([O-])c2nnnn2-c2ccccc2)n1)C(=O)O (some centres unmarked) [drawing 479] | – | – | – | 1 (1: −10 > Δ > −50%, lower binding affinity than phenylalanine)
NC(Cc1cccc(-c2cccc(Sc3nc4cc([N+](=O)[O-])ccc4s3)c2)c1)C(=O)O (centres unmarked) [Compound 109] | 2 (10 < X < 20 Rank 2) | 3 (X > 20 Rank 3) | 3 (X > 20 Rank 3) | –
O=C(O)C(Cc1cccc(CSc2nnc(-c3ccncc3)o2)c1)NS(=O)(=O)c1ccc(F)cc1 (centres unmarked) [Compound 12] | 0 (X < 0 Rank 0) | 0 (X < 0 Rank 0) | 2 (10 < X < 20 Rank 2) | –
NC(Cc1ccc(-c2ccc(CSc3nc4cc([N+](=O)[O-])ccc4[nH]3)cc2)cc1)C(=O)O (centres unmarked) [Compound 124] | 0 (X < 0 Rank 0) | 1 (0 < X < 10 Rank 1) | 1 (0 < X < 10 Rank 1) | –
NC(Cc1cccc(-c2cccc(N3CC=CCC3)c2)c1)C(=O)O (centres unmarked) [Compound 43] | 0 (X < 0 Rank 0) | 2 (10 < X < 20 Rank 2) | 0 (X < 0 Rank 0) | –
N[C@@H](Cc1ccccc1)C(=O)NC(Cc1cccc(CSc2ncc[nH]2)c1)C(=O)O (some centres unmarked) [Compound 7] | 0 (X < 0 Rank 0) | 0 (X < 0 Rank 0) | 2 (10 < X < 20 Rank 2) | –
CCOC(=O)c1cnc(SCc2cccc(CC(N)C(=O)O)c2)[nH]c1=O (centres unmarked) [Compound 131] | 2 (10 < X < 20 Rank 2) | 3 (X > 20 Rank 3) | 3 (X > 20 Rank 3) | –
